According to USRE35230E (priority 1994, dated 1996):

Key:
(R)-oxynitrilase = assay: Relative rates of dehydrocyanation of cyanohydrins by soluble (R)-oxynitrilase (initial rate studies); format: biochemical; conditions: 0.21 mM cyanohydrin, dehydrocyanation relative to benzaldehyde cyanohydrin
Protocol: The following standardized assay was utilized to measure the activity of oxynitrilase set forth in the Examples which follow. A solution of enzyme was prepared in 0.1M (pH 5.5) citrate buffer. A 3-ml sample of enzyme solution was combined with 30 microliters of 0.21M benzaldehyde cyanohydrin and the rate of increase in absorbance at 250 nm recorded. Then, the same procedure was followed with a 3-ml sample of 0.1M (pH 5.5) citrate buffer to obtain the background, non-enzymatic, reaction. The activity in units/ml was calculated by subtracting the slope of the non-enzymatic reaction from the slope of the enzymatic reaction and converting the absorbance change with time to concentration change with time using a molar extinction coefficient of 13,200 M^-1 cm^-1.
Relative rates of dehydrocyanation of different cyanohydrins subjected to the action of the soluble catalyst (R)-oxynitrilase were determined from initial rate studies. A solution of (R)-oxynitrilase was combined with a 0.21 mM solution of cyanohydrin and the rate of increase of absorbance at the wavelength corresponding to the absorption maxima was monitored as described above in connection with the measurement of catalyst activity. The measured activity was calculated using the appropriate extinction coefficient for the corresponding aldehyde.

[1] = benzaldehyde cyanohydrin to benzaldehyde and hydrogen cyanide; cited from earlier work
[2] = Permeability in supported-gas membrane system of FIG. 1; conditions: both dehydrocyanation products approximately equal

Structure (SMILES) | Relative Rate ((R)-oxynitrilase) | dehydrocyanation equilibrium constant [1] [mM] | average permeability relative to the permeability of benzaldehyde cyanohydrin [2]
Cc1ccc(C(O)C#N)o1 (stereo not drawn) [5-Methylfurfural cyanohydrin] | 2.8 |  | 
N#CC(O)c1ccccc1 (stereo not drawn) [Benzaldehyde cyanohydrin, reference compound] | 1.0 | 5 | 
N#CC(O)C=Cc1ccccc1 (stereo not drawn) [Cinnamaldehyde cyanohydrin] | 0.05 |  | 
CC=CC(O)C#N (stereo not drawn) [Crotonaldehyde cyanohydrin] | 0.90 |  | 
N#CC(O)c1ccco1 (stereo not drawn) [Furfural cyanohydrin] | 2.5 |  | 
Cc1ccc(C(O)C#N)cc1 (stereo not drawn) [P-Tolualdehyde cyanohydrin] | 0.45 |  | 
N#CC(O)c1ccc2c(c1)OCO2 (stereo not drawn) [Piperonal cyanohydrin] | 2.1 |  | 
O=Cc1ccccc1 [benzaldehyde] |  |  | roughly 700 times
COc1cccc(C(O)C#N)c1 (stereo not drawn) [m-Anisaldehyde cyanohydrin] | 0.19 |  | 
COc1ccc(C(O)C#N)cc1 (stereo not drawn) [p-Anisaldehyde cyanohydrin] | 0.17 |  | 
CCc1ccc(C(O)C#N)cc1 (stereo not drawn) [p-Ethylbenzaldehyde cyanohydrin] | 0.13 |  | 
